# Calls of active or inactive are those of the source. The calls are words filed in the database; no cut-off is given here.
# What was measured:
# [1] = Acute toxicity in fasted KM mouse assessed as body weight change at 1000 mg/kg administered via gavage measured for 7 days; type: organism-based; details: in vivo, po, 168 h, time 7 day
# Candida tropicalis = experiment: Antifungal activity against Candida tropicalis assessed as fungal growth inhibition by CLSI based microdilution method; type: functional
# Candida albicans [2] = experiment: Antifungal activity against fluconazole-resistant Candida albicans 904 assessed as decrease in CDR1 expression at 16 ug/ml measured after 16 hrs by RT-PCR analysis; type: functional, organism-based; details: dose 16.0 µg/ml
# [3] = Cytotoxicity against mouse J774.A1 cells assessed as cell growth inhibition by MTT assay; type: toxicity, cell-based
# Candida albicans [4] = experiment: Antifungal activity against fluconazole-resistant Candida albicans 904 assessed as decrease in CDR2 expression at 16 ug/ml measured after 16 hrs by RT-PCR analysis; type: functional, organism-based; details: dose 16.0 µg/ml
# Candida albicans [5] = experiment: Antifungal activity against fluconazole-resistant Candida albicans 904 assessed as reduction in […] cell count at 16 times MIC incubated for 24 hrs by time-kill assay (reference value: 4 log10CFU/mL); type: functional
# Candida albicans [6] = experiment: Antifungal activity against fluconazole-resistant Candida albicans 904 assessed as reduction in CPH1 expression at 16 ug/ml incubated for 12 hrs by RT-PCR analysis; type: functional, organism-based; details: dose 16.0 µg/ml
# Pichia kudriavzevii = experiment: Antifungal activity against Pichia kudriavzevii assessed as fungal growth inhibition by CLSI based microdilution method; type: functional
# Nakaseomyces glabratus = experiment: Antifungal activity against Candida glabrata assessed as fungal growth inhibition by CLSI based microdilution method; type: functional
# Cytochrome P450 1A2 = biological target: T1, Cytochrome P450 1A2 (Homo sapiens, UniProt P05177); experiment: Inhibition of CYP1A2 in human liver microsomes using phenacetin as substrate preincubated for 5 mins followed by NADPH addition by LC-MS/MS analysis; type: ADME, Microsome
# T1 sequence (P05177 whole entry): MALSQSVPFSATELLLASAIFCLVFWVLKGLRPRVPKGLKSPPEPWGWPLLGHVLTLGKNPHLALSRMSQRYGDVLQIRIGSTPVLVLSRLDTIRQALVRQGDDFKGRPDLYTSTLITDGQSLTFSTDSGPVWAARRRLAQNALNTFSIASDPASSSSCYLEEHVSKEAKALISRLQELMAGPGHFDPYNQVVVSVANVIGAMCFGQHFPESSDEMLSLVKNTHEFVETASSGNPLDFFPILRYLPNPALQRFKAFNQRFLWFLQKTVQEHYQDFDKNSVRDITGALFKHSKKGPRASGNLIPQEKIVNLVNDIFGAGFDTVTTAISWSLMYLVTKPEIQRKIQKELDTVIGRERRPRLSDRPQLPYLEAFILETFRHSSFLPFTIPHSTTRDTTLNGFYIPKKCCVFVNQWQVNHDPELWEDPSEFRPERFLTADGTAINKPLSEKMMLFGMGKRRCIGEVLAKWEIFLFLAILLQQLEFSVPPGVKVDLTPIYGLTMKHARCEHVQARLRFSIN
# [7] = Subacute toxicity in male KM mouse assessed as kidney damage at 100 mg/kg administered via gavage daily for 14 days; type: organism-based; details: in vivo, po, 336 h, time 14 day
# Candida albicans [8] = experiment: Antifungal activity against Candida albicans CPCC400616 assessed as reduction in CPH1 expression at 2 ug/ml incubated for 12 hrs by RT-PCR analysis; type: functional, organism-based; details: dose 2.0 µg/ml
# [9] = Stability in mouse plasma assessed as compound remaining at 1 uM measured for 180 mins by LC-MS/MS analysis; type: ADME, cell-free; details: read-out: Stability
# [10] = Subacute toxicity in male KM mouse assessed as focal infiltration of lymphocytes in kidney at 100 mg/kg administered via gavage daily for 7 days; type: organism-based; details: in vivo, po, 168 h, time 7 day
# Candida albicans [11] = experiment: Antifungal activity against fluconazole-resistant Candida albicans 904 assessed as fungal growth inhibition measured for 48 hrs by CLSI based microdilution method; type: functional
# Cytochrome P450 2C19 = Cytochrome P450 2C19 (Homo sapiens, UniProt P33261); experiment: Inhibition of CYP2C19 in human liver microsomes using […] as substrate preincubated for 5 mins followed by NADPH addition by LC-MS/MS analysis; type: ADME, Microsome
# Chain of Cytochrome P450 2C19 (P33261 whole entry): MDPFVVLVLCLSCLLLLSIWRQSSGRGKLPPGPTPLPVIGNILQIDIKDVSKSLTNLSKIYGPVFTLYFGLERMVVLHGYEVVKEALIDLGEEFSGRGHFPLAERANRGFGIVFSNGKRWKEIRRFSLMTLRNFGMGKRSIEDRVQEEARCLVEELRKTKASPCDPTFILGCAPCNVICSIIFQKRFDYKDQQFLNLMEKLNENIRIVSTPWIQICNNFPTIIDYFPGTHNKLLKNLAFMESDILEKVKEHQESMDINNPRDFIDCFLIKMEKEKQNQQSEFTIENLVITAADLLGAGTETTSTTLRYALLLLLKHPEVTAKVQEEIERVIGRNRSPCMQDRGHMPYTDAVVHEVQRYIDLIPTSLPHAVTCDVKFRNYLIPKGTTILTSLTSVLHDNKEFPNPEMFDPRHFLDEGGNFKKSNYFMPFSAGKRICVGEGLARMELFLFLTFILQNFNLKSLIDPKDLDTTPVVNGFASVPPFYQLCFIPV
# [12] = Subacute toxicity in female KM mouse assessed as kidney damage at 100 mg/kg administered via gavage daily for 14 days; type: organism-based; details: in vivo, po, 336 h, time 14 day
# Candida albicans [13] = experiment: Antifungal activity against Candida albicans CPCC400616 assessed as reduction in ALS3 expression at 2 ug/ml incubated for 12 hrs by RT-PCR analysis; type: functional, organism-based; details: dose 2.0 µg/ml
# Candida albicans [14] = experiment: Antifungal activity against fluconazole-resistant Candida albicans 901 assessed as fungal growth inhibition by CLSI based microdilution method; type: functional
# Candida albicans [15] = experiment: Antifungal activity against Candida albicans SC5314 assessed as destruction of cell membrane at 16 ug/ml incubated for 24 hrs by TEM analysis; type: functional, organism-based; details: dose 16.0 µg/ml
# Candida albicans [16] = experiment: Antifungal activity against Candida albicans CPCC400616 assessed as reduction in EFG1 expression at 2 ug/ml incubated for 12 hrs by RT-PCR analysis; type: functional, organism-based; details: dose 2.0 µg/ml
smiles,measurement,setting,value
O=c1ccc2ccc(COC(Cn3ccnc3)c3ccc(Cl)cc3Cl)cc2o1 (stereo unspecified),Activity,[1],Non-Toxic
same,MIC,Candida tropicalis,0.25 µg/mL
same,Activity,Candida albicans [2],Active
same,IC50,[3],24.4 µM
same,Activity,Candida albicans [4],Active
same,Activity,Candida albicans [5],2 log10CFU/ml
same,Activity,Candida albicans [6],Active
same,MIC,Pichia kudriavzevii,2 µg/mL
same,MIC,Nakaseomyces glabratus,0.5 µg/mL
same,IC50,Cytochrome P450 1A2,6.01 µM
same,Activity,[7],Toxic
same,Activity,Candida albicans [8],Active
same,"remaining at 3 h, 1 µM",[9],103%
same,Activity,[10],Toxic
same,MFC,Candida albicans [11],8 µg/mL
same,IC50,Cytochrome P450 2C19,0.227 µM
same,Activity,[12],Non-Toxic
same,Activity,Candida albicans [13],Active
same,MIC,Candida albicans [14],4 µg/mL
same,Activity,Candida albicans [15],Active
same,Activity,Candida albicans [16],Active

# From ChEMBL document CHEMBL5365497, “Developing Novel Coumarin-Containing Azoles Antifungal Agents by the Scaffold Merging Strategy for Treating Azole-Resistant Candidiasis” (J Med Chem, 2023)
